Data reported in ChEMBL document CHEMBL5584237, “Design, synthesis, biological evaluation, and in silico studies of novel pyridopyridine derivatives as anticancer candidates targeting FMS kinase” (Eur J Med Chem, 2024).
Activity calls are given as the source filed them. The calls are words filed in the database; no cut-off is given here.

Legend:
[1] = Selectivity index, ratio of IC50 for human WI-38 cells to IC50 for human RXF 393 cells
[2] = Selectivity index, ratio of IC50 for human HS27 cells to IC50 for human SNB-75 cells
[3] = Selectivity index, ratio of IC50 for human WI-38 cells to IC50 for human M14 cells
SF-539 = experiment: Antiproliferative activity against human SF-539 cells assessed as cell growth inhibition; assay type: functional
[4] = Selectivity index, ratio of IC50 for human HS27 cells to IC50 for human SN12C cells
[5] = Selectivity index, ratio of IC50 for human HS27 cells to IC50 for human CCRF-CEM cells
[6] = Selectivity index, ratio of IC50 for human WI-38 cells to IC50 for human SK-MEL-28 cells
[7] = Selectivity index, ratio of IC50 for human WI-38 cells to IC50 for human HCT-116 cells; assay type: toxicity; details: WI-38 cells and HCT-116 cells, read-out: Ratio IC50
SNB-75 = experiment: Antiproliferative activity against human SNB-75 cells assessed as cell growth inhibition; assay type: functional
[8] = Selectivity index, ratio of IC50 for human HS27 cells to IC50 for human PC-3 cells
[9] = Selectivity index, ratio of IC50 for human HS27 cells to IC50 for human OVCAR-4 cells
PC-3 = experiment: Antiproliferative activity against human PC-3 cells assessed as cell growth inhibition; assay type: functional
[10] = Selectivity index, ratio of IC50 for human WI-38 cells to IC50 for human MCF7 cells; assay type: toxicity; details: WI-38 cells and MCF7 cells, read-out: Ratio IC50
NCI-H460 = experiment: Antiproliferative activity against human NCI-H460 cells assessed as cell growth inhibition; assay type: functional
[11] = Selectivity index, ratio of IC50 for human WI-38 cells to IC50 for human SF-295 cells
Hep 3B2 [12] = experiment: Cell cycle arrest in human Hep3B cells assessed as downregulation of cyclin D1 expression at 0.5 x IC50 to IC50 measured after 48 hrs by Western blot analysis; assay type: functional, cell-based
MDA-MB-468 = experiment: Antiproliferative activity against human MDA-MB-468 cells assessed as cell growth inhibition; assay type: functional
[13] = Selectivity index, ratio of IC50 for human HS27 cells to IC50 for human SW-620 cells
[14] = Selectivity index, ratio of IC50 for human WI-38 cells to IC50 for human MDA-MB-231 cells; assay type: toxicity; details: WI-38 cells and MDA-MB-231 cells, read-out: Ratio IC50
[15] = Selectivity index, ratio of IC50 for human WI-38 cells to IC50 for human OVCAR-4 cells
[16] = Selectivity index, ratio of IC50 for human WI-38 cells to IC50 for human 786-0 cells
[17] = Selectivity index, ratio of IC50 for human HS27 cells to IC50 for human K562 cells
Hep 3B2 [18] = experiment: cells; details: Homo sapiens, Hep3B, 48 h
[19] = Selectivity index, ratio of IC50 for human HS27 cells to IC50 for human OVCAR-3 cells
[20] = Selectivity index, ratio of IC50 for human WI-38 cells to IC50 for human CAKI-1 cells
[21] = Selectivity index, ratio of IC50 for human HS27 cells to IC50 for human 786-0 cells
[22] = Selectivity index, ratio of IC50 for human HS27 cells to IC50 for human Hs-578T cells
[23] = Selectivity index, ratio of IC50 for human WI-38 cells to IC50 for human Hs-578T cells
SR = experiment: Antiproliferative activity against human SR cells assessed as cell growth inhibition; assay type: functional
MDA-MB-231 = experiment: Antiproliferative activity against human MDA-MB-231 cells assessed as cell growth inhibition; assay type: functional
COLO 205 = experiment: Antiproliferative activity against human COLO 205 cells assessed as cell growth inhibition; assay type: functional
Malme-3M = experiment: Antiproliferative activity against human Malme-3M cells assessed as cell growth inhibition; assay type: functional
[24] = Selectivity index, ratio of IC50 for human WI-38 cells to IC50 for human SF-539 cells
[25] = Selectivity index, ratio of IC50 for human HS27 cells to IC50 for human CAKI-1 cells
[26] = Selectivity index, ratio of IC50 for human WI-38 cells to IC50 for human SR cells; assay type: toxicity; details: WI-38 cells and SR cells, read-out: Ratio IC50
[27] = Selectivity index, ratio of IC50 for human WI-38 cells to IC50 for human NCI-H460 cells; assay type: toxicity; details: WI-38 cells and NCI-H460 cells, read-out: Ratio IC50
[28] = Selectivity index, ratio of IC50 for human WI-38 cells to IC50 for human PC-3 cells; assay type: toxicity; details: WI-38 cells and PC-3 cells, read-out: Ratio IC50
[29] = Selectivity index, ratio of IC50 for human HS27 cells to IC50 for human MDA-MB-231 cells
[30] = Selectivity index, ratio of IC50 for human WI-38 cells to IC50 for human HT-29 cells; assay type: toxicity; details: WI-38 cells and HT-29 cells, read-out: Ratio IC50
[31] = Selectivity index, ratio of IC50 for human HS27 cells to IC50 for human MCF7 cells
[32] = Selectivity index, ratio of IC50 for human WI-38 cells to IC50 for human COLO 205 cells
[33] = target: Macrophage colony-stimulating factor 1 receptor (Homo sapiens, UniProt P07333); experiment: Inhibition of FMS (unknown origin) using myelin basic protein as substrate measured after 40 mins in presence of [gamma-33P]-ATP by scintillation counting method; details: read-out: IC50
Chain of Macrophage colony-stimulating factor 1 receptor (P07333 whole entry): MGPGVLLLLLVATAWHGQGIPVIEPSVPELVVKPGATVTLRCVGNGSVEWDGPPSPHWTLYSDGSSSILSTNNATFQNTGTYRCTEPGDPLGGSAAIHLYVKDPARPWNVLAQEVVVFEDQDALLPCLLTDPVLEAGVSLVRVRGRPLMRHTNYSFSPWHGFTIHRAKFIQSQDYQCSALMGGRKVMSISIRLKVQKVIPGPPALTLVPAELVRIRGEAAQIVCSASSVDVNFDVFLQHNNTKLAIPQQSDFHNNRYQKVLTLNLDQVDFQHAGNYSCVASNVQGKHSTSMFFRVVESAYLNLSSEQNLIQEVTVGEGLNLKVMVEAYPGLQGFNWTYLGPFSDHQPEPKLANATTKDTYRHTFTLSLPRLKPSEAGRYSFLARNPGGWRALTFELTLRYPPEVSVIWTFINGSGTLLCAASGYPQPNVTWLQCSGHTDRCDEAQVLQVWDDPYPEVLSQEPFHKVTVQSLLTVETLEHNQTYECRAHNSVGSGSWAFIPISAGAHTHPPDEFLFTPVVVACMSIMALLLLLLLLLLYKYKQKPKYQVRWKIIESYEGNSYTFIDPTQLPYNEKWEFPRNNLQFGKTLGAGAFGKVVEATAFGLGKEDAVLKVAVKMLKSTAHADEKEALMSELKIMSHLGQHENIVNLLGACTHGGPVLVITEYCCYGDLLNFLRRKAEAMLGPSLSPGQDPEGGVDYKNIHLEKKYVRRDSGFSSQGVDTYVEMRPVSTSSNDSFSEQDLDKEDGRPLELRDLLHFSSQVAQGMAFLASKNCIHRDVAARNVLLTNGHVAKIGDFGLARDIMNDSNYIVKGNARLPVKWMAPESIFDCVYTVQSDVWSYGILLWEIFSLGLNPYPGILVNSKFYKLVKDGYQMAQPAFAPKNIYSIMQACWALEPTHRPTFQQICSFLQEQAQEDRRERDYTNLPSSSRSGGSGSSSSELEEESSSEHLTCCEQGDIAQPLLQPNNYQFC

CCRF-CEM = experiment: Antiproliferative activity against human CCRF-CEM cells assessed as cell growth inhibition; assay type: functional
[34] = Selectivity index, ratio of IC50 for human HS27 cells to IC50 for human Malme-3M cells
LOX IMVI = experiment: Antiproliferative activity against human LOX IMVI cells assessed as cell growth inhibition; assay type: functional
[35] = Selectivity index, ratio of IC50 for human HS27 cells to IC50 for human SF-295 cells
SK-MEL-28 = experiment: Antiproliferative activity against human SK-MEL-28 cells assessed as cell growth inhibition; assay type: functional
[36] = Selectivity index, ratio of IC50 for human WI-38 cells to IC50 for human MOLT-4 cells

CCN1CCN(c2ccc(NC(=O)Nc3ccc(-c4cc(C(=O)NC(C)C)c5ncccc5n4)cc3)cc2C(F)(F)F)CC1
Ratio IC50 [1]: 10.52 | Ratio IC50 [2]: 4.52 | Ratio IC50 [3]: 8.62 | GI50 (SF-539): 530 nM | TGI (SF-539): 1020 nM | Ratio IC50 [4]: 5.45 | Ratio IC50 [5]: 8 | Ratio IC50 [6]: 8.62 | selectivity ratio [7]: 18.8 | GI50 (SNB-75): 980 nM | TGI (SNB-75): 5.14 µM | Ratio IC50 [8]: 11.2 | Ratio IC50 [9]: 3.05 | GI50 (PC-3): 760 nM | TGI (PC-3): 2100 nM | selectivity ratio [10]: 10.1 | GI50 (NCI-H460): 620 nM | TGI (NCI-H460): 1180 nM | Ratio IC50 [11]: 8.71 | Activity (Hep 3B2 [12]): inactive | GI50 (MDA-MB-468): 770 nM | TGI (MDA-MB-468): 1850 nM | Ratio IC50 [13]: 9.77 | selectivity ratio [14]: 10.1 | Ratio IC50 [15]: 5.89 | Ratio IC50 [16]: 10.52 | Ratio IC50 [17]: 8 | IC50 (Hep 3B2 [18]): 1690 nM | Ratio IC50 [19]: 3.05 | Ratio IC50 [20]: 10.52 | Ratio IC50 [21]: 5.45 | Ratio IC50 [22]: 5.22 | Ratio IC50 [23]: 10.06 | TGI (SR): 12.1 µM | GI50 (MDA-MB-231): 610 nM | TGI (MDA-MB-231): 1180 nM | GI50 (COLO 205): 930 nM | TGI (COLO 205): 2710 nM | GI50 (Malme-3M): 580 nM | TGI (Malme-3M): 1050 nM | Ratio IC50 [24]: 8.71 | Ratio IC50 [25]: 5.45 | selectivity ratio [26]: 15.4 | selectivity ratio [27]: 6.4 | selectivity ratio [28]: 21.6 | Ratio IC50 [29]: 5.22 | selectivity ratio [30]: 18.8 | Ratio IC50 [31]: 5.22 | Ratio IC50 [32]: 18.84 | IC50 [33]: 993 nM | TGI (CCRF-CEM): 3.1 µM | Ratio IC50 [34]: 4.47 | GI50 (LOX IMVI): 560 nM | TGI (LOX IMVI): 1050 nM | Ratio IC50 [35]: 4.52 | GI50 (SK-MEL-28): 750 nM | TGI (SK-MEL-28): 1850 nM | Ratio IC50 [36]: 15.43
